Experimental data reported in patent US6331565A, “Dicaffeoylquinic acid for treating hepatitis B and the diseases associated with retrovirus, and the new caffeoylquinic acid derivatives” (Institute of Radiation Medicine Academy of Military Medical …, priority 1996, dated 2001).
In brackets after ≈: the same amount, converted by molar mass. Entries after “also recorded” stand apart in the source; their conditions may differ. Read-outs that look alike come from different tables or passages of the source.

Tests used:
Hep G2 cell lines = assay: Cytotoxicity in Hep G2 cell lines; assay type: cell-based; conditions: 1.0 μg.ml^-1
Method: (§1) The viability of cells was determined by MTT.

[1] = Tolerance and general health in ducks; conditions: duck, in vivo; preliminary results; read-out: maximal tolerance dose in duck
HBV DNA replication = conditions: FIG. 1; 15.625-250 ug/ml
Method: Hep G2 2.2.15 cell lines were maintained in DMEM supplemented with 10% fetal calf serum (FCS) and 100 units.ml^-1 of penicillin and streptomycin, 380 μg.ml^-1 of G418 in a humidified atmosphere containing 5% CO2 at 37° C. The cultures were passenged by trypsinization every 4 days. For bioassays cells were plated in 24-well plates at a density of 1.0×10^5 cells/well. Two-day-old cultures were treated with various concentrations of drug in DMEM containing 10 FCS. The drug was left in the medium for 4 days, and then the medium was aspirated and the fresh medium containing the same concentration of drug was added. At the end of three 4-day periods, the cells were harvested. The aliquot of the culture medium was used for the estimation of the HBV surface antigen (HBsAg) and HBV e antigen (HBeAg).
DNA extraction in 2.2.15 cells: Total DNA was isolated from 2.2.15 cells, cells was washed in PBS and lysed in a solution containing 50 mmol.l^-1 Tris-HCl (pH 7.5). 10 mmol.l^-1 EDTA. 1% SDS and 50 μg.ml^-1 of proteinase K (Sigma). After incubation at 37° C. for 4 h, total DNA was extracted in phenol-chloroform-isoamyl alcohol (25:24:1) followed by two extractions with chloroform-isoamyl alcohol. The DNA was precipitated with 1/10 vol NaOAc and 2.5 vol ethanol overnight at -70° C. […]

[2] = system: lymphocyte proliferation induced by Con A; conditions: mice infected with MuLV
Method: mice. Five-wk-old female C57BL/6 mice were used throughout the experiments. All mice were housed in sterile cages in a room supplied with filtrated air. They were given pelleted food and chlorinated water ad libitum.
Infection with LP-BM5 MuLV. Cell-free supernatants of LP-BM5 MULV were prepared by cocultivating G6 SC-1 clones with normal SC-1 cells for 5 days. Mice were inoculated intraperitoneally with 150 μl of stock solution containing 10^3,4×C plaque-forming units and 10^2,3 Mink-cell focks-forming units per […].
Then, the spleens were collected. Cell suspensions were prepared by repeated passage of whole spleen through a pipette, the capsule and debris were allowed to settle, and the supernatants containing cells were collected and washed twice in PBS. […] Incubation continued for 16 hr, then cells were collected on filter that was determined by a scintillation counter.

HBeAg = assay: microbe, parasite or virus in culture; assay type: cell-based, HBV; conditions: Hepatitis B virus; for inhibition at 7.81 µg/mL / inhibition at 15.63 µg/mL / inhibition at 31.25 µg/mL / inhibition at 62.5 µg/mL / inhibition at 125 µg/mL / inhibition at 250 µg/mL: read-out: HBeAg Inhibit rate (%)
Method: (§2) The cultures were passenged by trypsinization every 4 days.
(§3) HBsAg and HBeAg in the culture medium were determined according to the protocol respectively. The culture medium (200 μl) was absorbed on beads containing antibody to HBsAg/HBeAg in the presence of the conjugate. After overnight incubation, the beads were washed 6 times with […] PBS containing 0.05% Tween-80 and incubated with 200 μl of [^125 I] anti-HBs(Hbe) overnight. The beads were washed 6 times as above. The amounts HBsAg/HBeAg as measure of cpm of [^125 I] labeled immunocomplex was counted on γ-counter.

HBsAg = assay: microbe, parasite or virus in culture; assay type: cell-based, HBV; conditions: Hepatitis B virus; for inhibition at 7.81 µg/mL / inhibition at 15.63 µg/mL / inhibition at 31.25 µg/mL / inhibition at 62.5 µg/mL / inhibition at 125 µg/mL / inhibition at 250 µg/mL: read-out: HBsAg Inhibit rate (%)
Method: as §2, §3

2.2.15 cells = assay: Cytotoxicity in 2.2.15 cells (MTT); assay type: cell-based
Method: as §2, §1

HIV-1 RT = system: HIV-1 RT
Method: MT4 cells in culture were counted by trypan blue exclusion method. The MT4 cells suspended in a small volume of RPMI-1640 medium without FCS and infected with HIV-1 at 200 TCID50 viruses per 10^6 cells. The mixture of MT4 cells and virus was subsequently incubated at 37° C. in a humidified atmosphere of 5% CO2 for 1 hr to allow virus to adsorbed to cells. Unabsorbed viruses were then removed by washing one with […] of the fresh medium and centrifuged at 1000 rpm for ten minutes. The cells were suspended in the medium and distributed into 12-well microculture plates (10^6 cells/3 ml/well). […] After 4-day incubation at 37° C. in a humidified atmosphere containing 5% CO2 the medium was aspirated and the fresh medium containing the same concentration of drug was added.
The presence of HIV-1 RT in the supernatants of infected, drug-treated and infected, no drug treated MT4 cell culture was assayed. Cell culture fluids was clarified at 1000 rpm for 10 minutes to remove cellular debris. The supernatant samples (20 μl) in duplicate transferred to 5 ml plastic Falcon tubes, 10 μl of virus solubilization buffer [0.5% Triton X-100 in 0.8 M NaCl, 0.5 mM phenylmethysulfonyfluoride, 20% (v/v) glycerol and 50 mM Tris-HCl, pH 7.8] were then added to solubilize the viral particles in the supernatant samples and to release RT located in the viral core. 170 μl of reaction mixture (cocktail I) [52 mM Tris-HCl (pH 7.8), 10 mM MgCl2, 2 mM dithiothreitol, 5 μg of poly(rA)-oligo(dT)per ml. 83 μg of dATP per ml, and 3 μCi of [^3 H]TTP per ml] was then added and incubated at 37° C. for 2 hr. The incorporation of [^3 H]TTP into DNA with poly(rA)-olgio(dT) template primer by viral RT was assessed by trichloroacetic (TCA) precipitation and filtered over a […] diameter glass fiber filter. […] of cold 10% TCA was added to precipitate DNA. The precipitate DNA was then collected on the filters in a Millipore sampling manifold, and was washed with additional 5 volumes of 5% TCA and 2 volumes of 70% ethanol. Radioactivity of the DNA on the filters was determined by a scintillation counter.

O=C(/C=C/c1ccc(O)c(O)c1)OC1CC(OC(=O)/C=C/c2ccc(O)c(O)c2)(C(=O)O)CC(O)C1O (stereo not drawn) [Compound A, 1,5-di-O-caffeoylquinic acid]
toxicity to Hep G2 cell lines (Hep G2 cell lines): did not show toxicity
MTD [1]: > 4000 mg/kg
inhibition of HBV DNA replication (HBV DNA replication): inhibit HBV DNA replication in a dose dependent manner
proliferation of lymphocyte induced by Con A [2]: enhance the proliferation of lymphocyte induced by Con A in a degree near to that of AZT; also recorded: enhance the proliferation of lymphocyte of mice infected with MuLV
inhibition at 7.81 µg/mL (HBeAg; 96 h): 8.94 ± 4.29%
inhibition at 15.63 µg/mL (HBeAg; 96 h): 19.1 ± 3.89%
inhibition at 31.25 µg/mL (HBeAg; 96 h): 34.5 ± 6.66%
inhibition at 62.5 µg/mL (HBeAg; 96 h): 41 ± 3.68%
inhibition at 125 µg/mL (HBeAg; 96 h): 47.4 ± 1.09%
inhibition at 250 µg/mL (HBeAg; 96 h): 64.2 ± 2.03%
inhibition at 7.81 µg/mL (HBeAg; 288 h): 15.9 ± 2.4%
inhibition at 15.63 µg/mL (HBeAg; 288 h): 27.8 ± 2.23%
inhibition at 31.25 µg/mL (HBeAg; 288 h): 30.5 ± 3.55%
inhibition at 62.5 µg/mL (HBeAg; 288 h): 47.3 ± 0.81%
inhibition at 125 µg/mL (HBeAg; 288 h): 54.5 ± 1.01%
inhibition at 250 µg/mL (HBeAg; 288 h): 66.5 ± 0.9%
inhibition at 7.81 µg/mL (HBeAg; […]): 10.4 ± 2.05%
inhibition at 15.63 µg/mL (HBeAg; […]): 31.7 ± 7.1%
inhibition at 31.25 µg/mL (HBeAg; […]): 41.8 ± 2.47%
inhibition at 62.5 µg/mL (HBeAg; […]): 45.2 ± 2.47%
inhibition at 125 µg/mL (HBeAg; […]): 52.5 ± 1.89%
inhibition at 250 µg/mL (HBeAg; […]): 64.7 ± 2.28%
IC50 (HBeAg; read-out: IC50, production of HBeAg): 21 to 78 µg/mL (≈ 40.7 to 151 µM)
inhibition at 7.81 µg/mL (HBsAg; 96 h): 17.2%
inhibition at 15.63 µg/mL (HBsAg; 96 h): 26%
inhibition at 31.25 µg/mL (HBsAg; 96 h): 37.2 ± 2.86%
inhibition at 62.5 µg/mL (HBsAg; 96 h): 47.5 ± 1.17%
inhibition at 125 µg/mL (HBsAg; 96 h): 57%
inhibition at 250 µg/mL (HBsAg; 96 h): 62.3 ± 2.22%
inhibition at 7.81 µg/mL (HBsAg; 288 h): 24.2 ± 4.63%
inhibition at 15.63 µg/mL (HBsAg; 288 h): 31.4 ± 3.2%
inhibition at 31.25 µg/mL (HBsAg; 288 h): 36.1%
inhibition at 62.5 µg/mL (HBsAg; 288 h): 50.1 ± 1.28%
inhibition at 125 µg/mL (HBsAg; 288 h): 58.3%
inhibition at 250 µg/mL (HBsAg; 288 h): 66.6%
inhibition at 7.81 µg/mL (HBsAg; […]): 18.5%
inhibition at 15.63 µg/mL (HBsAg; […]): 27.6%
inhibition at 31.25 µg/mL (HBsAg; […]): 35.8 ± 1.9%
inhibition at 62.5 µg/mL (HBsAg; […]): 46.7 ± 2.03%
inhibition at 125 µg/mL (HBsAg; […]): 55 ± 2.08%
inhibition at 250 µg/mL (HBsAg; […]): 68.8 ± 4.68%
IC50 (HBsAg; read-out: IC50, production of HBsAg): 21 to 165 µg/mL (≈ 40.7 to 319 µM)
IC50 (HBsAg; read-out: IC50 for inhibition of production of HBsAg): 21 to 165 µg/mL (≈ 40.7 to 319 µM)
toxicity to 2.2.15 cells (2.2.15 cells; 1.0 μg.ml^-1): did not show toxicity
harmful effects on 2.2.15 cells (2.2.15 cells; 500 μg/ml): no obvious harmful effects
IC50, RT in MT4 cells infected with HIV (HIV-1 RT): 17.1 µg/mL
Inhibitory rate(%) (HIV-1 RT; 1 μg/ml): 22.8 ± 1.9%
cpm (HIV-1 RT; 1 μg/ml): 6051 ± 91 cpm
Inhibitory rate(%) (HIV-1 RT; 10 μg/ml): 45.4 ± 0.8%
cpm (HIV-1 RT; 10 μg/ml): 4283 ± 89 cpm
Inhibitory rate(%) (HIV-1 RT; 100 μg/ml): 68.7 ± 0.5%
cpm (HIV-1 RT; 100 μg/ml): 2456 ± 54 cpm
Inhibitory rate(%) (HIV-1 RT; 1000 μg/ml): 80.5 ± 1.5%
cpm (HIV-1 RT; 1000 μg/ml): 1528 ± 89 cpm
